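Interpolation was linear, between the two tested concentrations surrounding the appropriate level; five concentrations were tested over 48 hours in 96-well plates. GI50 is the concentration that inhibits growth by half.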 Calls of active or inactive are those of the source. No stated cut-off is given here; in the data, active = GI50 up to about 1.1 µM and inactive = higher.
Key:
Experiment in all cases: growth of human tumour cells (NCI), 48 h
HCC 2998 = tested on: HCC 2998
MDA-MB-435 = tested on: MDA-MB-435
SF-268 = tested on: SF-268
Malme-3M = tested on: Malme-3M
NCI-H23 = tested on: NCI-H23
M14 = tested on: M14
UO-31 = tested on: UO-31
PC-3 = tested on: PC-3
NCI-H522 = tested on: NCI-H522
SR = tested on: SR
SW-620 = tested on: SW-620
SK-OV-3 = tested on: SK-OV-3
HOP-62 = tested on: HOP-62
SK-MEL-28 = tested on: SK-MEL-28
SK-MEL-2 = tested on: SK-MEL-2
EKVX = tested on: EKVX
A549 = tested on: A549
OVCAR-3 = tested on: OVCAR-3
SF-295 = tested on: SF-295
CCRF-CEM = tested on: CCRF-CEM

SMILES | GI50 (HCC 2998) | GI50 (MDA-MB-435) | GI50 (SF-268) | GI50 (Malme-3M) | GI50 (NCI-H23) | GI50 (M14) | GI50 (UO-31) | GI50 (PC-3) | GI50 (NCI-H522) | GI50 (SR) | GI50 (SW-620) | GI50 (SK-OV-3) | GI50 (HOP-62) | GI50 (SK-MEL-28) | GI50 (SK-MEL-2) | GI50 (EKVX) | GI50 (A549) | GI50 (OVCAR-3) | GI50 (SF-295) | GI50 (CCRF-CEM)
N#Cc1c2c(c(Nc3ccc(F)cc3)n3c1nc1ccccc13)CCCC2 | > 100 µM (inactive) | > 24.9 µM (inactive) | > 100 µM (inactive) | > 100 µM (inactive) | > 100 µM (inactive) | 1.7 µM (inactive) | > 38.9 µM (inactive) | 5.36 µM (inactive) | > 62.1 µM (inactive) | 74.3 µM (inactive) | > 54 µM (inactive) | 97.9 µM (inactive) | 29.1 µM (inactive) | > 100 µM (inactive) | > 100 µM (inactive) | > 100 µM (inactive) | 97.9 µM (inactive) | > 100 µM (inactive) | 8.15 µM (inactive) | > 22.5 µM (inactive)
Cc1cc2c(cc1C)[n+]([O-])c(C(=O)N1CCN(c3ccc([N+](=O)[O-])cc3)CC1)c(C)[n+]2[O-] | 26.8 µM (inactive) | > 100 µM (inactive) | 19 µM (inactive) | > 100 µM (inactive) | 26.5 µM (inactive) | 32.5 µM (inactive) | 28.5 µM (inactive) | 93.3 µM (inactive) | 75.3 µM (inactive) | > 100 µM (inactive) | > 100 µM (inactive) | 18.2 µM (inactive) | 12.8 µM (inactive) | > 100 µM (inactive) | 38.5 µM (inactive) | 24.4 µM (inactive) | 82.2 µM (inactive) | > 100 µM (inactive) | 16.1 µM (inactive) | > 100 µM (inactive)
NS(=O)(=O)c1ccc(NNc2c3ccccc3nc3c(C(=O)Nc4ccc(S(N)(=O)=O)cc4)cccc23)cc1 | 17.4 µM (inactive) | 49.3 µM (inactive) | 16.2 µM (inactive) | 23.8 µM (inactive) | 28.8 µM (inactive) | 55.3 µM (inactive) | 63 µM (inactive) | 30.2 µM (inactive) | 15.2 µM (inactive) | 9.42 µM (inactive) | 15.3 µM (inactive) | 50 µM (inactive) | 57.3 µM (inactive) | 48.6 µM (inactive) | 13 µM (inactive) | 42.8 µM (inactive) | > 100 µM (inactive) | 23 µM (inactive) | 37.7 µM (inactive) | 14.5 µM (inactive)
COc1cc2cc(C(=O)N3C[C@@H](CCl)c4c3cc(N)c3ccccc43)[nH]c2c(OC)c1OC | < 0.01 µM (active) | 0.000269 µM (active) | 0.119 µM (active) | < 0.01 µM (active) | 0.0138 µM (active) | 0.00104 µM (active) | 0.00622 µM (active) | 0.00102 µM (active) | 0.00283 µM (active) | 0.000455 µM (active) | 0.00201 µM (active) | 0.00457 µM (active) | 0.00755 µM (active) | < 0.01 µM (active) | < 0.01 µM (active) | 0.231 µM (active) | 0.00546 µM (active) | 0.00385 µM (active) | < 0.01 µM (active) | 0.000644 µM (active)
CN1CCC2(CC1)SC[C@H]1C(=O)N(c3ccc(Cl)cc3)C(=O)N12 | > 100 µM (inactive) | 43.7 µM (inactive) | > 100 µM (inactive) | > 100 µM (inactive) | > 100 µM (inactive) | > 100 µM (inactive) | > 100 µM (inactive) | > 100 µM (inactive) | > 100 µM (inactive) | > 100 µM (inactive) | > 100 µM (inactive) | > 100 µM (inactive) | > 100 µM (inactive) | > 100 µM (inactive) | > 100 µM (inactive) | > 100 µM (inactive) | > 100 µM (inactive) | > 100 µM (inactive) | > 100 µM (inactive) | > 100 µM (inactive)
CC1(CO)OC(n2cnc3cncnc32)CC1O (stereo not given) | > 100 µM (inactive) | > 100 µM (inactive) | > 100 µM (inactive) | > 100 µM (inactive) | > 100 µM (inactive) | > 100 µM (inactive) | > 100 µM (inactive) | > 100 µM (inactive) | > 100 µM (inactive) | > 100 µM (inactive) | > 100 µM (inactive) | > 100 µM (inactive) | > 100 µM (inactive) | > 100 µM (inactive) | > 100 µM (inactive) | > 100 µM (inactive) | > 100 µM (inactive) | > 100 µM (inactive) | > 100 µM (inactive) | > 100 µM (inactive)
